Test results reported in patent publication US20080031903A1, “METHOD OF TREATING OCULAR INFECTIONS” (priority 2006, published 2008).
Several values for one entry are separate records, joined by “and”; a condition that tells them apart may be missing. Equal values may be shown once. Entries after “also recorded” stand apart in the source; their conditions may differ.

Test system: Ad5
Experiment: Ad5/NZW rabbit ocular model, Example 5 (IG-Ad-R3)
Type: in vivo
Description: Additional experiments were conducted substantially as described in Example 3, in order to determine the antiviral efficacy of a 100 mg/ml solution of IG (intravenous Immune Globulin) in the Ad5/NZW rabbit ocular model.

[1] = Days 1-5, Early Phase of Infection
[2] = Days 7-14, Late Phase of Infection

Nc1ccn(C[C@@H](CO)OCP(=O)(O)O)c(=O)n1 [0.5% Cidofovir, Cidofovir]
Ad5 ocular viral titer, individual eye (D 0, before treatment): 1050 pfu/ml and 50 pfu/ml and 1350 pfu/ml and 1200 pfu/ml and 30 pfu/ml and 6300 pfu/ml and 20 pfu/ml and 600 pfu/ml and 750 pfu/ml and 140 pfu/ml | Ad5 ocular viral titer, individual eye (D 1): 35 pfu/ml and 10 pfu/ml and 550 pfu/ml and 5 pfu/ml and 500 pfu/ml and 60 pfu/ml and 200 pfu/ml and 700 pfu/ml (2×) and 400 pfu/ml | Ad5 ocular viral titer, individual eye (D 3): 1500 pfu/ml and 5 pfu/ml and 2900 pfu/ml (2×) and 105 pfu/ml and 2600 pfu/ml and 1350 pfu/ml and 1600 pfu/ml and 4500 pfu/ml and 3500 pfu/ml | Ad5 ocular viral titer, individual eye (D 4): 0 pfu/ml (2×) and 5 pfu/ml and 750 pfu/ml and 1100 pfu/ml and 400 pfu/ml and 1150 pfu/ml and 7100 pfu/ml and 2000 pfu/ml and 1900 pfu/ml | Ad5 ocular viral titer, individual eye (D 5): 15 pfu/ml and 0 pfu/ml (2×) and 750 pfu/ml and 5 pfu/ml and 1400 pfu/ml and 700 pfu/ml and 600 pfu/ml and 850 pfu/ml and 950 pfu/ml | Ad5 ocular viral titer, individual eye (D 7): 0 pfu/ml (6×) and 25 pfu/ml and 5 pfu/ml (2×) and 10 pfu/ml | Ad5 ocular viral titer, individual eye (D 9): 0 pfu/ml | Ad5 ocular viral titer, individual eye (D 11): 0 pfu/ml | Ad5 ocular viral titer, individual eye (D 14): 0 pfu/ml | Positive Cultures per Total (Day 0, before treatment): 10/10 | Positive Cultures per Total, percent (Day 0, before treatment): 100% | Positive Cultures per Total (Day 1): 10/10 | Positive Cultures per Total, percent (Day 1): 100% | Positive Cultures per Total (Day 3): 10/10 | Positive Cultures per Total, percent (Day 3): 100% | Positive Cultures per Total (Day 4): 8/10 | Positive Cultures per Total, percent (Day 4): 80% | Positive Cultures per Total (Day 5): 8/10 | Positive Cultures per Total, percent (Day 5): 80% | Positive Cultures per Total (Day 7): 4/10 | Positive Cultures per Total, percent (Day 7): 40% and 80% | Positive Cultures per Total (Day 9): 0/10 | Positive Cultures per Total, percent (Day 9): 0% | Positive Cultures per Total (Day 11): 0/10 | Positive Cultures per Total, percent (Day 11): 0% | Positive Cultures per Total (Day 14): 0/10 | Positive Cultures per Total, percent (Day 14): 0% | Positive Cultures per Total, Total [1]: 36/40 | Positive Cultures per Total, Total (%) [1]: 90% | Positive Cultures per Total, Total (Days 1-14): 40/80 | Positive Cultures per Total, Total (%) (Days 1-14): 50% | Positive Cultures per Total, Total [2]: 4/40 | Positive Cultures per Total, Total (%) [2]: 10% | Mean Combined Ocular Titers Days 1-5, comparison (Early Phase): significantly lower Mean Combined Ocular Titers Days 1-5 compared with the saline Control | Mean Combined Ocular Titers Days 7-14, comparison (Late Phase): significantly lower Mean Combined Ocular Titers Days 7-14 compared with the saline Control | Positive Cultures per Total Days 7-14, comparison (Late Phase): significantly fewer Positive Cultures per Total Days 7-14 compared with 10% IG and the saline Control | Mean Daily Ocular Titers, comparison (days as stated): significantly lower titer on Day 7 compared the saline Control | Antiviral efficacy, conclusion (rabbit, in vivo): demonstrated its proven antiviral efficacy | Mean Duration of Shedding, comparison (rabbit, in vivo): significantly shorter mean durations of shedding compared with the saline Control; also recorded: significantly shorter mean duration of shedding compared with 10% IG | Positive Cultures per Total Days 1-14, comparison (rabbit, in vivo): significantly fewer Positive Cultures per Total Days 1-14 compared with the saline Control
